According to patent US8445510B2, “Fused bicyclic kinase inhibitors” (OSI Pharmaceuticals, LLC, priority 2011, dated 2013):

Assays:
RON = molecular target: T1, RON (Homo sapiens, UniProt Q04912); experiment: sfRON cell mechanistic assay (HeLa), phosphorylated RON ELISA; assay type: cell-based; details: HeLa cells transfected with sfRON; inhibition of phosphorylated RON; four hours incubation; at least duplicate experiments; read-out: sfRON mech IC50
T1 sequence (Q04912 913-1400): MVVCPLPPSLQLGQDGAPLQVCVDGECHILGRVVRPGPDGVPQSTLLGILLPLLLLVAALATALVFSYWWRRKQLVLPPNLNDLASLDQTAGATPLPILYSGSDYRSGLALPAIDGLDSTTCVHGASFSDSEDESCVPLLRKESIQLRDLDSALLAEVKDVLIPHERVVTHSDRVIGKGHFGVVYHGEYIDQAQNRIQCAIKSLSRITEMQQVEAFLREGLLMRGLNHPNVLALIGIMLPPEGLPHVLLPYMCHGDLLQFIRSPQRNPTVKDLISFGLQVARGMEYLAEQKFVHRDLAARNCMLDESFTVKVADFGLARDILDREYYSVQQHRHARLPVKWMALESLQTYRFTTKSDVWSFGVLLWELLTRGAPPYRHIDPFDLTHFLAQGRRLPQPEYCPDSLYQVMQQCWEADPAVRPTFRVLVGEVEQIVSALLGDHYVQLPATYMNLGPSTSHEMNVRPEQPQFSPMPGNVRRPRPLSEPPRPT
Outline: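 HeLa cells transiently transfected with sfRON plasmid, then exposed 4 h at 37 °C to a 6-point compound series (typically 10 μM to 3 nM, 0.5% DMSO). Phospho-RON (pY1238/1239) in lysates measured by sandwich ELISA with luminescence. IC50 from 4-parameter fit of percent-of-DMSO-control data, at least duplicate runs.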

Karpas-299 cells = experiment: Karpas-299 cell proliferation assay (CellTiter-Glo); assay type: cell-based; details: Homo sapiens, 72 h; Karpas-299 cell line (NPM-ALK); 3 days incubation; at least duplicate experiments; read-out: Prolif. IC50

| IC50 (RON) | IC50 (Karpas-299 cells) | SMILES |
| --- | --- | --- |
| ≤ 200 nM | ≤ 50 nM | COc1ccc(F)c(Cl)c1[C@@H](C)c1c[nH]c2ncc(-c3cn([C@H]4CC[C@H](O)CC4)nc3C)cc12 [Example 28, trans-4-(4-{3-[(1S)-1-(2-Chloro-3-fluoro-6-methoxyphenyl)ethyl]-1H-pyrrolo[2,3-b]pyridin-5-yl}-3-methyl-1H-pyrazol-1-yl)cyclohexanol] |
| ≤ 200 nM | ≤ 50 nM | COc1ccc(F)c(Cl)c1[C@@H](C)c1c[nH]c2ncc(-c3cn([C@H]4CC[C@H](C(=O)N(C)C)CC4)nc3C)cc12 [Example 23, trans-4-(4-{3-[(1S)-1-(2-chloro-3-fluoro-6-methoxyphenyl)ethyl]-1H-pyrrolo[2,3-b]pyridin-5-yl}-3-methyl-1H-pyrazol-1-yl)-N,N-dimethylcyclohexanecarboxamide] |
| 200 to 1000 nM | ≤ 50 nM | CNC(=O)[C@H]1CC[C@H](n2nc(C)c(-c3cnc4[nH]cc([C@H](C)c5c(OC)ccc(F)c5Cl)c4c3)c2C)CC1 [Example 24, trans-4-(4-{3-[(1S)-1-(2-Chloro-3-fluoro-6-methoxyphenyl)ethyl]-1H-pyrrolo[2,3-b]pyridin-5-yl}-3,5-dimethyl-1H-pyrazol-1-yl)-N-methylcyclohexanecarboxamide] |
